For one data set, the target named is FKBP (Homo sapiens, UniProt P62942). Nature of the data set: PPIase Inhibition Assay. The class given is biochemical. The procedure: 1) Inhibition of PPlase Activity
This assay follows in principle the procedure described in Kofron et al., 1991, Biochemistry 30:6127. The three main reagents used are PPIase, a substrate for PPIase, and a selected inhibitor compound of the present invention. The basic principle behind this assay is the conversion of the cis isomer of the substrate to the trans form, which conversion is catalyzed by PPIase. Essentially, inhibition of this PPIase activity is measured for the selected compounds. A peptide chymotrypsin substrate containing a proline in the P2 position is only cleaved by chymotrypsin when the Phe-Pro bond is in the trans isomeric configuration. In the presence of excess chymotrypsin, all of the trans peptide isomers are cleaved within approximately five seconds, leaving only cis forms.
The cis peptide will spontaneously convert to the trans isomer at a slow rate. The cis to trans conversion is catalyzed by isomerases at a much faster rate than this spontaneous conversion. Proteins with PPIase activity are examples of such isomerases. After isomerization, the peptide is cleaved by chymotrypsin releasing p-nitroaniline which can be monitored at 390 nm. The rate of release is then calculated using a first order rate plus offset equation utilizing the ENZFITTER program (Leatherbarrow, BIOSOFT, Cambridge, United Kingdom).
In a plastic cuvette are added 950 ul of ice cold assay buffer (25 mM HEPES, pH 7.8, 100 mM NaCl), 10 uL of FKBP (2.5 uM in 10 mM Tris-Cl pH 7.5,100 mM NACl, 1 mM dithiothreitol), 25 ul of chymotrypsin (50 mg/ml in 1 mM HCl) and 10 ul of the test compound at various concentrations in dimethyl sulphoxide. The reaction is initiated by addition of 5 ul of substrate (Succinyl-Ala-Phe-Pro-Phe-para-nitroanilide, 5 mg/ml in 235 mM LiCl in trifluoroethanol).
The absorbance at 390 nm versus time is monitored for 90 sec using a Beckman DU70 spectrophotometer. The absorbance versus time data files are transferred to an IBM XT computer and the rate constants determined using the commercial Enzfitter program. For each set of data, the uncatalyzed rate of conversion is measured and the uninhibited enzymatic rate determined. The data are expressed as % Inhibition and are calculated as follows: [formula] where kobs is the rate in the presence of a selected test compound, kuncat is the rate in the absence of enzyme, and kuninh is the rate in the presence of enzyme and absence of inhibitor. Data are plotted as percent inhibition versus concentration of inhibitor. The values of the concentration of inhibitor required for 50% inhibition of enzyme activity (IC50) were determined by nonlinear least squares regression analysis.

The subject of the next data set is human T-cells. Briefly: Suppression of Human T-Cell Proliferation Assay (mitogen-induced, [3H]-thymidine incorporation). Conditions: Homo sapiens, T-cell; 72 hours incubation; mitogen stimulated; read-out: IC50 (inhibition of [3H]-thymidine incorporation of T-cells by 50%). Type of data set: cell-based. An excerpt: 2) Human T Lymphocyte Inhibition
Inhibition of mitogen-induced T-cell proliferation can be used to profile immunosuppressive activity of test compounds. In the description of the assay which follows, mitogen-induced T-cell proliferation was used to test the inhibitory potencies of select compounds of the present invention.
In an assay similar to that described by Bradley in Mishell et al. (Eds.), 1980, Selected Methods in Cellular Immunology, pp 156-161, W. H. Freeman & Co., San Fransisco, Calif., T-cells were stimulated by incubation with phytohemagglutinin (PPIA) which binds to cell surface molecules, including the T-cell receptor. This stimulation results in proliferation which can be measured by incorporation of [^3 H]-thymidine into cellular DNA.
The immunosuppressive properties of the compounds of the present invention can be determined by adding various concentrations of the compounds to these cultures and measuring the effect on T-cell proliferation.
Suppression of Human T-Cell Proliferation Assay
Fresh LeukoPaks were obtained from the New York Blood Center, New York, N.Y. The cells, including erythrocytes and leukocytes, were diluted with Hank's Balanced Salt Solution (HBSS) (GIBCO, Grand Island, N.Y.) and layered over Lymphoprep (Nycomed Pharma AS, Oslo, Norway) in sterile 50 ml conical centrifuge tubes. Lymphocytes were isolated at the Hank's/Nycomed interface after centrifugation at 2000×g, 4° C. for 15 min. The lymphocytes were washed with Minimal Essential Medium (GIBCO) containing 2% fetal bovine serum (FBS) (Sigma Chemical Co., St. Louis, Mo.), 1% HEPES buffer (GIBCO) and 1% Penicillin-Stretomycin solution (GIBCO).
T-cells were further purified essentially by sheep erythrocyte (SRBC) rosetting as described by Morimoto et al., 1983, J. Immunol. 130:157. The isolated lymphocytes were adjusted to 2×10^7 cells/ml and 5 ml aliquots of the cell suspension were incubated for 10 minutes at room temperature with 5 ml of a 5% SRBC (Cappel, Organon Technika Corp., West Chester, Pa.) suspension. The cells were gently pelleted by centrifugation at 300 rpm for 10 minutes, followed by a 1 hour incubation at room temperature to allow rosette formation. The cells were gently resuspended,layered over Lymphoprep and centrifuged for 30 minutes at 500×g. The pellet, containing rosetted T-cells and SRBC was treated with ice cold buffered ammonium chloride (GIBCO) to lyse the erythrocytes. T-cells were washed twice with HBSS.
Purified T-cells were resuspended at 2×10^6 cells/ml in complete culture medium composed of RPMI-1640 (Whittaker Bioproducts, Walkerville, Md.) with 10% FBS (Sigma), 2 mM L-glutamine (GIBCO), 1% Penicillin-Streptomycin (GIBCO) and 15 mM HEPES (GIBCO). In 96-well plates (Becton Dickinson, Lincoln Park, N.J.), 0.1 ml aliquots of T-cell suspension were mixed with 0.05 ml of 40 μg/ml PPIA-M (Sigma). The compounds of this invention were dissolved in dimethylsulfoxide at 10 mM and various dilutions in complete medium were added in duplicate wells (0.05 ml/well). The plates were incubated at 37° C. in a humidified atmosphere of 5% carbon dioxide and 95% air for 72 hours.
Proliferation was assessed by measurement of [3H]-thymidine incorporation. During the last 6 hours of incubation, the cells were pulse labelled with 1 μCi/well of [3H]-thymidine (New England Nuclear, Boston, Mass.). The cells were harvested onto glass fiber paper using a plate harvester and the radioactivity incorporated into cellular DNA corresponding to individual wells was measured by standard liquid scintillation counting methods. The mean counts per minute (CPM) of replicate wells was calculated and linear regression analysis of mean CPM versus compound concentration was used to determine the concentration of compound which would inhibit [^3 H]-thymidine incorporation of T-cells by 50% (IC50).

The subject of another data set is NF-AT. Conditions: Schreiber and Crabtree, 1992; cited from earlier work.
The next data set has as its system dogs. The conditions noted are these: Collier et al., 1988; cited from earlier work.
A further data set has as its system transplant patients. The conditions noted are these: cited from earlier work.
In data set [1] the test system is FK506 binding protein (FKBP). The conditions noted are these: cited from earlier work.
In the next data set the test system is baboons. Conditions: Collier et al., 1988; cited from earlier work.
For another data set, the system named is IL-2 production. Conditions: cited from earlier work.

Chain of FKBP (P62942 whole entry): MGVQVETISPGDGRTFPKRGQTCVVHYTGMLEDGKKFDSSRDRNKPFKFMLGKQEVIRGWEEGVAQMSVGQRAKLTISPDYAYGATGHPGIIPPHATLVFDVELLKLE

In the case of `CC(C)C[C@@H](CN1CCC[C@H]1C(=O)NCCCCc1ccccc1)NS(=O)(=O)CS(C)(=O)=O` [Example 9, 1-[2-(S)-(Methylsulfonylmethanesulfonylamino)-4-methylpentyl]-L-proline 4-Phenylbutylamide], the IC50 is over 5 µM against FKBP and 4 µM in the data set with human T-cells.

As for `C=CC[C@@H]1/C=C(\C)C[C@H](C)C[C@H](OC)[C@H]2O[C@@](O)(C(=O)C(=O)N3CCCC[C@H]3C(=O)O[C@H](/C(C)=C/[C@@H]3CC[C@@H](O)[C@H](OC)C3)[C@H](C)[C@@H](O)CC1=O)[C@H](C)C[C@@H]2OC` [FK506], the “NF-AT activity (in words)” value in the data set with NF-AT was “inhibited”. The vasculitis result with dogs and in the data set with baboons was “severe vasculitis” each time. Moreover, the “effectiveness in transplant patients who do not respond to CsA” value in the data set on transplant patients (Tucci et al., 1989) is “effective in some transplant patients who do not respond to CsA”. Further, the “absolute rate of clinical rejection vs current standard therapies” value in the data set on transplant patients (post-organ transplantation patients, Holechek, 1991) is listed as “only slightly lower than with current standard therapies”. Further, the “binding to FKBP (in words)” value in data set [1] is listed as “bound”. Further, in the data set on IL-2 production, the “IL-2 production (in words)” value is given as “inhibit IL-2 production”.
